Results taken from the supplement of paper PMC4862054.

How the values were obtained:
Conditions in all cases: incubation time: 72 h
HCC1143 [1] = experiment: normalised response (% of control), CellTox Green; higher = less cell death (100 = DMSO, 0 = benzethonium chloride kill control)
How it was run: (§1)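 Plates were normalised with 0.1 % DMSO as 100 and a positive kill control as 0. Breast cancer cell lines in 20 µl suspension had been seeded into 384-well plates with compound at 5 concentrations in 10-fold steps over a compound-specific 10,000-fold range, incubated 72 h, and read for CellTox Green fluorescence (485/520 nm) followed by CellTiter-Glo luminescence. Each value is the normalised signal at a single concentration.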

CAL-51 [2] = experiment: as above
How it was run: as §1

MCF-10A [3] = experiment: as above
How it was run: as §1

MDA-MB-453 [4] = experiment: as above
How it was run: as §1

MDA-MB-231 [5] = experiment: as above
How it was run: as §1

CAL-148 [6] = experiment: as above
How it was run: as §1

BT-549 [7] = experiment: as above
How it was run: as §1

DU-4475 [8] = experiment: as above
How it was run: as §1

HDQ-P1 [9] = experiment: as above
How it was run: as §1

HCC1599 [10] = experiment: as above
How it was run: as §1

MFM-223 [11] = experiment: as above
How it was run: as §1

HCC1937 [12] = experiment: as above
How it was run: as §1

Hs578T [13] = experiment: as above
How it was run: as §1

BT-474 [14] = experiment: as above
How it was run: as §1

MDA-MB-436 [15] = experiment: as above
How it was run: as §1

CAL-85-1 [16] = experiment: as above
How it was run: as §1

CAL-120 [17] = experiment: as above
How it was run: as §1

MDA-MB-468 [18] = experiment: as above
How it was run: as §1

HCC1143 [19] = experiment: normalised response (% of control), CellTiter-Glo; higher = more viable cells (100 = DMSO, 0 = benzethonium chloride kill control)
How it was run: as §1

CAL-51 [20] = experiment: as above
How it was run: as §1

MCF-10A [21] = experiment: as above
How it was run: as §1

MDA-MB-453 [22] = experiment: as above
How it was run: as §1

MDA-MB-231 [23] = experiment: as above
How it was run: as §1

CAL-148 [24] = experiment: as above
How it was run: as §1

BT-549 [25] = experiment: as above
How it was run: as §1

DU-4475 [26] = experiment: as above
How it was run: as §1

HDQ-P1 [27] = experiment: as above
How it was run: as §1

HCC1599 [28] = experiment: as above
How it was run: as §1

MFM-223 [29] = experiment: as above
How it was run: as §1

HCC1937 [30] = experiment: as above
How it was run: as §1

Hs578T [31] = experiment: as above
How it was run: as §1

BT-474 [32] = experiment: as above
How it was run: as §1

MDA-MB-436 [33] = experiment: as above
How it was run: as §1

SK-BR-3 = experiment: as above
How it was run: as §1

CAL-85-1 [34] = experiment: as above
How it was run: as §1

CAL-120 [35] = experiment: as above
How it was run: as §1

MDA-MB-468 [36] = experiment: as above
How it was run: as §1

| SMILES | normalised response (HCC1143 [1]) [%] | normalised response (CAL-51 [2]) [%] | normalised response (MCF-10A [3]) [%] | normalised response (MDA-MB-453 [4]) [%] | normalised response (MDA-MB-231 [5]) [%] | normalised response (CAL-148 [6]) [%] | normalised response (BT-549 [7]) [%] | normalised response (DU-4475 [8]) [%] | normalised response (HDQ-P1 [9]) [%] | normalised response (HCC1599 [10]) [%] | normalised response (MFM-223 [11]) [%] | normalised response (HCC1937 [12]) [%] | normalised response (Hs578T [13]) [%] | normalised response (BT-474 [14]) [%] | normalised response (MDA-MB-436 [15]) [%] | normalised response (CAL-85-1 [16]) [%] | normalised response (CAL-120 [17]) [%] | normalised response (MDA-MB-468 [18]) [%] | normalised response (HCC1143 [19]) [%] | normalised response (CAL-51 [20]) [%] | normalised response (MCF-10A [21]) [%] | normalised response (MDA-MB-453 [22]) [%] | normalised response (MDA-MB-231 [23]) [%] | normalised response (CAL-148 [24]) [%] | normalised response (BT-549 [25]) [%] | normalised response (DU-4475 [26]) [%] | normalised response (HDQ-P1 [27]) [%] | normalised response (HCC1599 [28]) [%] | normalised response (MFM-223 [29]) [%] | normalised response (HCC1937 [30]) [%] | normalised response (Hs578T [31]) [%] | normalised response (BT-474 [32]) [%] | normalised response (MDA-MB-436 [33]) [%] | normalised response (SK-BR-3) [%] | normalised response (CAL-85-1 [34]) [%] | normalised response (CAL-120 [35]) [%] | normalised response (MDA-MB-468 [36]) [%] |
| --- | --- | --- | --- | --- | --- | --- | --- | --- | --- | --- | --- | --- | --- | --- | --- | --- | --- | --- | --- | --- | --- | --- | --- | --- | --- | --- | --- | --- | --- | --- | --- | --- | --- | --- | --- | --- | --- |
| Cc1ccc([N+](=O)[O-])cc1S(=O)(=O)N(C)/N=C/c1cnc2ccc(Br)cn12 [PIK-75] (1000 nM) | 56.9 | 70.6 | -12.4 | 61.6 | -17.8 | 86.7 | 35.8 | 79 | 38.4 | 62.1 | 44.6 | 99.3 | 42.7 | 6.93 | 102 | -12.6 | 86.8 | -15.6 | 13.3 | 11.5 | 1.81 | 4.17 | 1.8 | 48.8 | 2.37 | 4.76 | 16.7 | 6.38 | 7.31 | 21.6 | 3.83 | 9.85 | 15.9 | 0.25 | 1.64 | 28.5 | 2.19 |
| CC(=O)N(O)CCCCCNC(=O)CCC(=O)N(O)CCCCCNC(=O)CCC(=O)N(O)CCCCCN [Deferoxamine] (1000 nM) | 82.2 | 91.1 | 79.7 | 100 | 96.7 | 2.01 | 102 | 97.5 | 106 | 96.7 | 70.8 | -39.7 | 97.3 | 96.8 | 73.7 | 110 | 96.8 | 143 | 79.5 | 88.7 | 97.7 | 84.2 | 86.8 | 59.6 | 72.7 | 85.8 | 93.6 | 98.2 | 89.5 | 76.8 | 96.8 | 90.9 | 87.4 | 84.2 | 102 | 96.1 | 63.3 |
| CC(=O)c1c(C)c2cnc(Nc3ccc(N4CCNCC4)cn3)nc2n(C2CCCC2)c1=O [Palbociclib] (1000 nM) | 70.3 | 126 | 105 | 101 | 109 | 89.8 | 109 | 99 | 103 | 98.1 | 98.4 | 102 | 108 | 95.2 | 100 | 114 | 102 | 167 | 80.3 | 103 | 82.5 | 102 | 84 | 86.2 | 102 | 94.4 | 105 | 91.6 | 72.6 | 94.8 | 93.3 | 78.1 | 96.6 | 75.9 | 104 | 84.6 | 86.7 |
| CC1(C)CCC(CN2CCN(c3ccc(C(=O)NS(=O)(=O)c4ccc(NCC5CCOCC5)c([N+](=O)[O-])c4)c(Oc4cnc5[nH]ccc5c4)c3)CC2)=C(c2ccc(Cl)cc2)C1 [ABT-199] (1000 nM) | 74.1 | 87.8 | 112 | 99.2 | 102 | 71.6 | 76.5 | 98 | 104 | 92.1 | 99.2 | – | 105 | 99.9 | 85 | 102 | 89.8 | 66.1 | 101 | 69.8 | 96.9 | 102 | 99.3 | 105 | 101 | 90.6 | 97.4 | 105 | 94.5 | 103 | 98.7 | 95.4 | 94.8 | 107 | 96.9 | 99.5 | 93.6 |
